{
  "source": "paper PMC5577376",
  "about": "(Nature chemical biology, 2017)",
  "key": {"[1]": {"system": "cellular neddylation / ubiquitination", "details": "cited from earlier work"}, "NEDD8 E1 enzyme": {"molecular_target": "NEDD8 E1 enzyme", "details": "read-out: biochemical IC50; cited from earlier work"}, "[2]": {"system": "levels of CRL substrates in HCC95 cells", "experiment": "Immunoblot of cullin-RING ligase substrates, HCC95", "assay_type": "cell-based, human"}, "[3]": {"system": "cullin neddylation in HCC95 cells", "experiment": "Cullin neddylation immunoblot, HCC95", "assay_type": "cell-based, human", "details": "for Effect on levels of neddylated cullins: HCC95, 10 μM dosed at 0 and 24 hours, harvested at 48 hours"}, "C115A DCN1, C115G DCN1": {"molecular_target": "C115A DCN1, C115G DCN1 (Homo sapiens, UniProt Q96GG9, C115A)", "sequence (Q96GG9 62-259 C115A)": "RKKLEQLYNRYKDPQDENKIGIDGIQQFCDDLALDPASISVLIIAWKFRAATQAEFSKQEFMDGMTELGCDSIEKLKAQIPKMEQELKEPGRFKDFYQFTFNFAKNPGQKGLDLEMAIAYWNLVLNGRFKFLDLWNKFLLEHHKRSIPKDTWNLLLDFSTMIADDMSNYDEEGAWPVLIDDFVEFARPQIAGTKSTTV", "experiment": "Covalent adduct formation by TOF mass spectrometry, DCN1 Cys115 mutants", "assay_type": "binding"}, "DCN3 PONY domain": {"molecular_target": "T1, DCN3 PONY domain (Homo sapiens, UniProt Q8IWE4)", "T1 sequence (Q8IWE4 86-278 limits assumed)": "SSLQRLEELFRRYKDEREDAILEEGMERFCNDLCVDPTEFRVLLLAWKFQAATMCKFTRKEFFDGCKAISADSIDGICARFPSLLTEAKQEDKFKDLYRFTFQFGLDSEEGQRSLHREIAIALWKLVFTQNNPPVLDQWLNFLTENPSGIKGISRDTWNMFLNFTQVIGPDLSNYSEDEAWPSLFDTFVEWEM", "experiment": "Covalent adduct formation by TOF mass spectrometry, DCN3", "assay_type": "binding", "details": "30 μM PONY domain, 60 μM compound, overnight"}, "DCN1": {"molecular_target": "DCN1 (Homo sapiens, UniProt Q96GG9)", "sequence (Q96GG9 60-248 limits assumed)": "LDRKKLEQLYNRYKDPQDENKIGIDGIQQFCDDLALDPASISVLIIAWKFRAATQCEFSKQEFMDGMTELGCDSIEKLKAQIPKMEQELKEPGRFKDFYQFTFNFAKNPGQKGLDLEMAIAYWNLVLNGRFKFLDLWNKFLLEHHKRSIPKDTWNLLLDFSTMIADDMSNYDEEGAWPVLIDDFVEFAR", "experiment": "Covalent adduct formation by LC-TOF mass spectrometry, DCN1", "assay_type": "binding", "details": "30 μM PONY domain, 60 μM compound, overnight / 24-hour incubation"}, "[4]": {"system": "anchorage independent growth of HCC95 cells", "experiment": "Soft agar colony formation assay", "assay_type": "cell-based, human", "details": "10 μM"}, "DCN2 PONY domain": {"molecular_target": "DCN2 PONY domain (Homo sapiens, UniProt Q6PH85)", "sequence (Q6PH85 60-248 limits assumed)": "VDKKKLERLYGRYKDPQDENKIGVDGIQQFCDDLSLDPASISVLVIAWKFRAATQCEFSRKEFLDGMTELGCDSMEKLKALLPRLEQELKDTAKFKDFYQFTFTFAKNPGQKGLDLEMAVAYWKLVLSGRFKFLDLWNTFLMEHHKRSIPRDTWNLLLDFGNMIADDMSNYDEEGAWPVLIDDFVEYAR", "experiment": "Covalent adduct formation by TOF mass spectrometry, DCN2", "assay_type": "binding", "details": "30 μM PONY domain, 60 μM compound, overnight"}, "DCN4": {"molecular_target": "T2, DCN4 (Homo sapiens, UniProt Q92564)", "T2 sequence (Q92564 101-287 limits assumed)": "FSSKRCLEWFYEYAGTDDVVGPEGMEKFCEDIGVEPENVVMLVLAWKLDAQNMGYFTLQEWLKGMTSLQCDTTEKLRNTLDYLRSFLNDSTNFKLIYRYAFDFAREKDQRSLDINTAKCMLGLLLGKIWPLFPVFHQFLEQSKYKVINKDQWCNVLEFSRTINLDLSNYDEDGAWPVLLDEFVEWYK", "experiment": "Pulse-chase neddylation assay with DCN4", "assay_type": "biochemical"}, "[5]": {"molecular_target": "DCN1-dependent neddylation from AcUBE2M to CUL2CTD-RBX1 (Homo sapiens, UniProt Q96GG9)", "sequence (Q96GG9 60-248 limits assumed)": "as the sequence (Q96GG9 60-248 limits assumed) above", "assay_type": "biochemical"}, "DCN4 PONY domain": {"molecular_target": "T3, DCN4 PONY domain (Homo sapiens, UniProt Q92564)", "T3 sequence (Q92564 101-287 limits assumed)": "T2 sequence (Q92564 101-287 limits assumed)", "experiment": "Covalent adduct formation by TOF mass spectrometry, DCN4", "assay_type": "binding", "details": "30 μM PONY domain, 60 μM compound, overnight"}, "DCN5 PONY domain": {"molecular_target": "T4, DCN5 PONY domain (Homo sapiens, UniProt Q9BTE7)", "T4 sequence (Q9BTE7 46-232 limits assumed)": "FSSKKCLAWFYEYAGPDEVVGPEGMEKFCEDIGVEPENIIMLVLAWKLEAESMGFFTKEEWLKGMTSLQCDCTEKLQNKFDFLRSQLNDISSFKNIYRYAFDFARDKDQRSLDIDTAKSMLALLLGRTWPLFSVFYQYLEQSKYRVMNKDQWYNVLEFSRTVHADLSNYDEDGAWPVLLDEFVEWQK", "experiment": "Covalent adduct formation by TOF mass spectrometry, DCN5", "assay_type": "binding", "details": "30 μM PONY domain, 60 μM compound, overnight"}, "DCN5": {"molecular_target": "T5, DCN5 (Homo sapiens, UniProt Q9BTE7)", "T5 sequence (Q9BTE7 46-232 limits assumed)": "T4 sequence (Q9BTE7 46-232 limits assumed)", "experiment": "Pulse-chase neddylation assay with DCN5", "assay_type": "biochemical"}, "[6]": {"molecular_target": "DCN1 (PONY domain) binding to N-terminally acetylated UBE2M peptide (Homo sapiens, UniProt Q96GG9)", "sequence (Q96GG9 60-248 limits assumed)": "as the sequence (Q96GG9 60-248 limits assumed) above"}, "DCN3": {"molecular_target": "T6, DCN3 (Homo sapiens, UniProt Q8IWE4)", "T6 sequence (Q8IWE4 86-278 limits assumed)": "T1 sequence (Q8IWE4 86-278 limits assumed)", "experiment": "Pulse-chase neddylation assay with DCN3", "assay_type": "biochemical"}, "[7]": {"system": "DCN1-independent NEDD8 ligation from AcUBE2M to CUL2CTD", "experiment": "Pulse-chase assay, DCN1-independent neddylation", "assay_type": "biochemical, human"}, "[8]": {"molecular_target": "UBE2M-DCN1 interaction in 293T cells (Homo sapiens, UniProt Q96GG9)", "sequence (Q96GG9 whole entry)": "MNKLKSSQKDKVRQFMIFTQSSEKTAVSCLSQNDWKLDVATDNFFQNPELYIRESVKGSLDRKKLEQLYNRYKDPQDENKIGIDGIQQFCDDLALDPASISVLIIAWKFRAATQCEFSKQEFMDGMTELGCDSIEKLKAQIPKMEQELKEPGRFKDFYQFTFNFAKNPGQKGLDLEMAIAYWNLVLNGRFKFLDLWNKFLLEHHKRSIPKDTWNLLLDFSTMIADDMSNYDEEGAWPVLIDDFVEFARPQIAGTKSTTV", "experiment": "Co-immunoprecipitation of DCN1 with UBE2M-FLAG-HA in cells", "assay_type": "cell-based", "details": "treated 24 hours"}, "DCN2": {"molecular_target": "DCN2 (Homo sapiens, UniProt Q6PH85)", "sequence (Q6PH85 60-248 limits assumed)": "as the sequence (Q6PH85 60-248 limits assumed) above", "experiment": "Pulse-chase neddylation assay with DCN2", "assay_type": "biochemical", "details": "10 μM"}, "[9]": {"system": "N-acetyl-UBE2M interactions in 293T cells", "experiment": "AP-MS TMT interaction proteomics of UBE2M", "assay_type": "cell-based, human"}, "[10]": {"details": "even at concentrations of 100 μM"}},
  "note": "“Also recorded” adds a separate entry of the source.",
  "data": [
    {"smiles": "NS(=O)(=O)OC[C@@H]1C[C@@H](n2ccc3c(N[C@H]4CCc5ccccc54)ncnc32)C[C@@H]1O", "note": "[MLN4924]", "values": [
      {"measurement": "concentration at which cell based activity is penetrant", "setting": "[1]", "result": "0.3 to 1", "unit": "µM"},
      {"measurement": "Reduction of total cellular ubiquitination", "setting": "[1]; total blockade of neddylation", "result": "10–20%"},
      {"measurement": "IC50", "setting": "NEDD8 E1 enzyme", "result": 5, "unit": "nM"},
      {"measurement": "Levels of CRL substrates", "setting": "[2]; HCC95, MLN4924 1 μM", "result": "high-level accumulation"},
      {"measurement": "Effect on neddylation in cells", "setting": "[3]; single dose, 1 μM", "result": "eliminates all neddylation"}
    ]},
    {"smiles": "C=CC(=O)Nc1ccccc1CN(C(=O)Nc1cccc(C(F)(F)F)c1)C1CCN(C(C)CCC)CC1", "note": "(stereo not drawn) [NAcM-COV, N-(2-((1-(1-(pentan-2-yl)piperidin-4-yl)-3-(3-(trifluoromethyl)phenyl)ureido)methyl)phenyl)acrylamide]", "values": [
      {"measurement": "Covalent adduct formation with DCN1 Cys115 replaced by Ala or Gly", "setting": "C115A DCN1, C115G DCN1", "result": "prevented covalent adduct formation"},
      {"measurement": "Covalent adduct formation with DCN3", "setting": "DCN3 PONY domain", "result": "corresponded to adducts"},
      {"measurement": "Covalent adduct formation with DCN1", "setting": "DCN1", "result": "most effective; also recorded: corresponded to adducts"},
      {"measurement": "Growth / colony formation of HCC95 cells in soft agar", "setting": "[4]", "result": "blocks growth"},
      {"measurement": "Covalent adduct formation with DCN2", "setting": "DCN2 PONY domain", "result": "corresponded to adducts"},
      {"measurement": "Activity towards DCN4", "setting": "DCN4; 50 μM", "result": "Partial activity"},
      {"measurement": "Potency increase by electrophile, NAcM-COV versus NAcM-COVCTRL, neddylation", "setting": "[5]", "result": 2.5, "unit": "fold"},
      {"measurement": "Covalent adduct formation with DCN4", "setting": "DCN4 PONY domain", "result": "Both modified and unmodified forms"},
      {"measurement": "Covalent adduct formation with DCN5", "setting": "DCN5 PONY domain", "result": "no evidence of covalent linkage"},
      {"measurement": "Effect on levels of neddylated cullins", "setting": "[3]", "result": "reduced levels of neddylated cullins; also recorded: most potent inhibition"},
      {"measurement": "Inhibition of DCN5", "setting": "DCN5", "result": "lack of inhibition"},
      {"measurement": "Potency increase by electrophile, NAcM-COV versus NAcM-COVCTRL, TR-FRET", "setting": "[6]", "result": "> 30", "unit": "fold"},
      {"measurement": "Activity towards DCN3", "setting": "DCN3; 50 μM", "result": "Partial activity"}
    ]},
    {"smiles": "CCCC(C)N1CCC(N(Cc2ccccc2NC(=O)CC)C(=O)Nc2cccc(C(F)(F)F)c2)CC1", "note": "(stereo not drawn) [NAcM-COVCTRL, N-(2-((1-(1-(pentan-2-yl)piperidin-4-yl)-3-(3-(trifluoromethyl)phenyl)ureido)methyl)phenyl)propionamide]", "values": [
      {"measurement": "Effect on levels of neddylated cullins", "setting": "[3]", "result": "relatively reduced potency"}
    ]},
    {"smiles": "O=C(Nc1cccc(C(F)(F)F)c1)NC1CCN(Cc2ccccc2)CC1", "note": "[NAcM-HIT, 1-(1-benzylpiperidin-4-yl)-3-(3-(trifluoromethyl)phenyl)urea]", "values": [
      {"measurement": "Inhibition of DCN1-independent NEDD8 ligation", "setting": "[7]", "result": "did not inhibit"}
    ]},
    {"smiles": "CCCCN1CCC(N(Cc2ccccc2)C(=O)Nc2cccnc2)CC1", "note": "[NAcM-NEG, 1-benzyl-1-(1-butylpiperidin-4-yl)-3-(pyridin-3-yl)urea]", "values": [
      {"measurement": "Co-precipitation of DCN1 with UBE2M", "setting": "[8]", "result": "interaction was observed"},
      {"measurement": "Effect on neddylation by enzyme assays", "setting": "[5]; [10]", "result": "no effect"},
      {"measurement": "Effect on levels of neddylated cullins", "setting": "[3]", "result": "no effect"},
      {"measurement": "Effect on DCN1-UBE2M interaction by TR-FRET", "setting": "[6]; [10]", "result": "no effect"}
    ]},
    {"smiles": "CCCCN1CCC(N(Cc2ccccc2)C(=O)Nc2ccc(Cl)c(Cl)c2)CC1", "note": "[NAcM-OPT, 1-benzyl-1-(1-butylpiperidin-4-yl)-3-(3,4-dichlorophenyl)urea]", "values": [
      {"measurement": "Growth / colony formation of HCC95 cells in soft agar", "setting": "[4]", "result": "blocks growth"},
      {"measurement": "Activity toward DCN4", "setting": "DCN4; 10 μM", "result": "no activity"},
      {"measurement": "Increased potency toward the neddylation reaction relative to NAcM-HIT", "setting": "[5]", "result": 25, "unit": "fold"},
      {"measurement": "Inhibition of DCN2-stimulated neddylation", "setting": "DCN2", "result": "inhibited"},
      {"measurement": "Fold decrease in UBE2M binding: CUL3", "setting": "[9]", "result": 1.9, "unit": "fold"},
      {"measurement": "Fold decrease in UBE2M binding: CUL5", "setting": "[9]", "result": 3.2, "unit": "fold"},
      {"measurement": "Fold decrease in UBE2M binding: DCN1", "setting": "[9]", "result": "≈ 8 fold"},
      {"measurement": "Levels of CRL substrates", "setting": "[2]; HCC95, 10 μM", "result": "Neither NAcM-OPT treatment nor DCN1 shRNA stabilizes"},
      {"measurement": "Effect on levels of neddylated cullins", "setting": "[3]", "result": "reduced levels of neddylated cullins"},
      {"measurement": "Activity toward DCN5", "setting": "DCN5; 10 μM", "result": "no activity"},
      {"measurement": "Enhanced potency relative to NAcM-HIT, TR-FRET", "setting": "[6]", "result": 100, "unit": "fold"},
      {"measurement": "Activity toward DCN3", "setting": "DCN3; 10 μM", "result": "no activity"}
    ]}
  ]
}
